Test results published in PubChem BioAssay AID330 (DTP/NCI, 2004).
Where “and” joins values, the source holds several entries; their conditions need not be identical. Equal values may be shown once. Inconclusive results and toxic doses are left out.

System: P388 leukemia ip, CD2F1 mice, survival T/C
Test: NCI In Vivo Anticancer Drug Screen. Data for tumor model P388 Leukemia (intraperitoneal) in CD2F1 (CDF1) mice
Settings: endpoint: median survival time, higher = longer survival
Outline: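 Mice carrying the transplanted tumor received test compound or vehicle. Survival was recorded in each group, and the value is the treated-group measurement divided by that of the vehicle-treated control group.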

[1] = dose: 25.0 mg/kg/injection, schedule: Q01DX009 (ip), vehicle: saline with Tween-80
[2] = dose: 50.0 mg/kg/injection, schedule: Q01DX009 (ip), vehicle: saline with Tween-80
[3] = dose: 100.0 mg/kg/injection, schedule: Q01DX009 (ip), vehicle: suspension in saline
[4] = dose: 200.0 mg/kg/injection, schedule: Q01DX009 (ip), vehicle: suspension in saline
[5] = dose: 100.0 mg/kg/injection, schedule: Q04DX003 (ip), vehicle: saline with Tween-80
[6] = dose: 200.0 mg/kg/injection, schedule: Q04DX003 (ip), vehicle: saline with Tween-80
[7] = dose: 400.0 mg/kg/injection, schedule: Q04DX003 (ip), vehicle: saline with Tween-80
[8] = dose: 50.0 mg/kg/injection, schedule: Q01DX009 (ip), vehicle: Klucel (hydroxypropylcellulose) (HPC)
[9] = dose: 100.0 mg/kg/injection, schedule: Q01DX009 (ip), vehicle: Klucel (hydroxypropylcellulose) (HPC)
[10] = dose: 200.0 mg/kg/injection, schedule: Q01DX009 (ip), vehicle: Klucel (hydroxypropylcellulose) (HPC)
[11] = dose: 50.0 mg/kg/injection, schedule: Q01DX005 (ip), vehicle: saline with Tween-80
[12] = dose: 100.0 mg/kg/injection, schedule: Q01DX005 (ip), vehicle: saline with Tween-80
[13] = dose: 50.0 mg/kg/injection, schedule: Q01DX005 (ip), vehicle: saline
[14] = dose: 100.0 mg/kg/injection, schedule: Q01DX005 (ip), vehicle: saline
[15] = dose: 200.0 mg/kg/injection, schedule: Q01DX005 (ip), vehicle: saline

Question: What does the source list for `CCC1(O)CC(OC2CC(N(C)C)C(OC3CC(O)C(OC4CC(O)C(O)C(C)O4)C(C)O3)C(C)O2)c2c(cc3c(c2O)C(=O)c2c(O)ccc(O)c2C3=O)C1C(=O)OC` (stereo not drawn)?
Answer: T/C (dose: 3.13 mg/kg/injection, schedule: Q04DX003 (ip), vehicle: Klucel (hydroxypropylcellulose) (HPC)): 105 % of control; T/C (dose: 6.25 mg/kg/injection, schedule: Q04DX003 (ip), vehicle: Klucel (hydroxypropylcellulose) (HPC)): 99 % of control; T/C (dose: 12.5 mg/kg/injection, schedule: Q04DX003 (ip), vehicle: Klucel (hydroxypropylcellulose) (HPC)): 105 % of control; T/C (dose: 25.0 mg/kg/injection, schedule: Q04DX003 (ip), vehicle: Klucel (hydroxypropylcellulose) (HPC)): 118 % of control

Question: For `CCCCCCCN(CCCCCCC)CC(O)c1c(OC)c2ccccc2c2ccccc12` (stereo not drawn), which T/C [1] is on record?
Answer: 89 % of control

Question: And the T/C [2]?
Answer: 88 % of control

Question: Which T/C (dose: 50.0 mg/kg/injection, schedule: Q01DX009 (ip), vehicle: suspension in saline) does the source give for `NCCc1cc(=O)[nH]o1` here?
Answer: 90 % of control

Question: What about the T/C [3] of the same compound?
Answer: 90 % of control

Question: And the T/C [4]?
Answer: 91 % of control

Question: Which results are given for `CO[C@H]1C[C@H]2CC[C@@]1(C)C2(C)C`?
Answer: T/C (dose: 60.0 mg/kg/injection, schedule: Q01DX005 (ip), vehicle: saline): 104 % of control; T/C (dose: 120.0 mg/kg/injection, schedule: Q01DX005 (ip), vehicle: saline): 104 % of control; T/C (dose: 240.0 mg/kg/injection, schedule: Q01DX005 (ip), vehicle: saline): 100 % of control

Question: Which results are given for `COc1cccc2c1C(=O)c1c(OC)c3c(c(OC)c1C2=O)C[C@@](O)(C(C)=O)C[C@@H]3OC1CC(N)C(O)C(C)O1` (stereo partly drawn)?
Answer: T/C (dose: 0.5 mg/kg/injection, schedule: Q01DX009 (ip), vehicle: water): 103 % of control; T/C (dose: 1.0 mg/kg/injection, schedule: Q01DX009 (ip), vehicle: water): 110 % of control; T/C (dose: 2.0 mg/kg/injection, schedule: Q01DX009 (ip), vehicle: water): 102 % of control; T/C (dose: 4.0 mg/kg/injection, schedule: Q01DX009 (ip), vehicle: water): 106 % of control; T/C (dose: 8.0 mg/kg/injection, schedule: Q01DX009 (ip), vehicle: water): 114 % of control and 119 % of control; T/C (dose: 16.0 mg/kg/injection, schedule: Q01DX009 (ip), vehicle: water): 111 % of control and 123 % of control; T/C (dose: 128.0 mg/kg/injection, schedule: Q01DX009 (ip), vehicle: water): 169 % of control

Question: `CCOC(=O)N1NC(=O)CC1(C)C` was tested. Which T/C (dose: 100.0 mg/kg/injection, schedule: Q01DX001 (ip), vehicle: saline) did it give?
Answer: 95 % of control

Question: What about the T/C (dose: 200.0 mg/kg/injection, schedule: Q01DX001 (ip), vehicle: saline) of the same compound?
Answer: 100 % of control

Question: And the T/C (dose: 400.0 mg/kg/injection, schedule: Q01DX001 (ip), vehicle: saline)?
Answer: 90 % of control

Question: With `O=C1CC[S][Sn][O]1` as the compound, how does the T/C [5] read?
Answer: 100 % of control

Question: What about the T/C [6] of the same compound?
Answer: 95 % of control

Question: And the T/C [7]?
Answer: 95 % of control

Question: What does the source list for `Cc1ccc(Nc2cc(C(=O)O)c(Nc3ccc(C)cc3)cc2C(=O)O)cc1`?
Answer: T/C [8]: 102 % of control; T/C [9]: 111 % of control; T/C [10]: 102 % of control

Question: What does the source list for `C[n+]1ccccc1NC(=O)c1ccccc1`?
Answer: T/C (dose: 61.5 mg/kg/injection, schedule: Q01DX001 (ip), vehicle: saline): 100 % of control; T/C (dose: 123.0 mg/kg/injection, schedule: Q01DX001 (ip), vehicle: saline): 104 % of control; T/C (dose: 246.0 mg/kg/injection, schedule: Q01DX001 (ip), vehicle: saline): 104 % of control

Question: With `CCCCN1C(=O)NC(C)C1=O` (stereo not drawn) as the compound, how does the T/C [11] read?
Answer: 99 % of control

Question: And the T/C [12]?
Answer: 108 % of control

Question: What about the T/C (dose: 200.0 mg/kg/injection, schedule: Q01DX005 (ip), vehicle: saline with Tween-80) of the same compound?
Answer: 103 % of control

Question: `CN1CCCC1CN1CCCC1` (stereo not drawn) was tested. Which T/C [13] did it give?
Answer: 107 % of control

Question: What about the T/C [14] of the same compound?
Answer: 102 % of control

Question: And the T/C [15]?
Answer: 98 % of control

Question: For `O=c1nc(-c2ccc3c(c2)OCO3)sc(=O)[nH]1`, which T/C [2] is on record?
Answer: 111 % of control

Question: And the T/C (dose: 100.0 mg/kg/injection, schedule: Q01DX009 (ip), vehicle: saline with Tween-80)?
Answer: 107 % of control

Question: And the T/C (dose: 200.0 mg/kg/injection, schedule: Q01DX009 (ip), vehicle: saline with Tween-80)?
Answer: 112 % of control

Question: How did the T/C (dose: 25.0 mg/kg/injection, schedule: Q01DX009 (ip), vehicle: Klucel (hydroxypropylcellulose) (HPC)) turn out when `CCn1c(=O)c2[nH]c(C(F)(F)F)nc2n(CC)c1=O` was run?
Answer: 86 % of control

Question: What about the T/C [8] of the same compound?
Answer: 99 % of control

Question: How did the T/C [8] turn out when `O=C(C[n+]1cccc2ccccc21)c1ccc(F)cc1` was run?
Answer: 119 % of control

Question: What about the T/C [9] of the same compound?
Answer: 97 % of control

Question: What about the T/C [10] of the same compound?
Answer: 91 % of control

Question: What does the source list for `CC1=CC[C@H]2C(=O)N(CCN(C)C)C(=O)[C@H]2C1`?
Answer: T/C [13]: 100 % of control; T/C [14]: 100 % of control; T/C [15]: 98 % of control

Question: How did the T/C [8] turn out when `Cc1c(O)ccc(C(=O)C(=O)C(C)C)c1O` was run?
Answer: 115 % of control

Question: And the T/C [9]?
Answer: 116 % of control

Question: And the T/C [10]?
Answer: 116 % of control

Question: How did the T/C (dose: 60.0 mg/kg/injection, schedule: Q01DX005 (ip), vehicle: saline with Tween-80) turn out when `O=C(CCCl)Nc1ccc(CCC(=O)c2ccccc2NC(=O)CCCl)cc1` was run?
Answer: 100 % of control

Question: What about the T/C (dose: 120.0 mg/kg/injection, schedule: Q01DX005 (ip), vehicle: saline with Tween-80) of the same compound?
Answer: 90 % of control

Question: And the T/C (dose: 240.0 mg/kg/injection, schedule: Q01DX005 (ip), vehicle: saline with Tween-80)?
Answer: 92 % of control

Question: How did the T/C (dose: 12.5 mg/kg/injection, schedule: Q04DX003 (ip), vehicle: saline) turn out when `Nc1ccccc1N1CCNCC1` was run?
Answer: 100 % of control

Question: And the T/C (dose: 25.0 mg/kg/injection, schedule: Q04DX003 (ip), vehicle: saline)?
Answer: 100 % of control

Question: What about the T/C (dose: 50.0 mg/kg/injection, schedule: Q04DX003 (ip), vehicle: saline) of the same compound?
Answer: 98 % of control and 101 % of control

Question: With `CC(SC(C)C(=O)N/N=C/c1ccc(C#N)cc1)C(=O)N/N=C\c1ccc(C#N)cc1` (stereo not drawn) as the compound, how does the T/C [3] read?
Answer: 97 % of control

Question: What about the T/C [4] of the same compound?
Answer: 101 % of control

Question: And the T/C (dose: 400.0 mg/kg/injection, schedule: Q01DX009 (ip), vehicle: suspension in saline)?
Answer: 90 % of control

Question: `Cc1ccc(I)c(C(O)(C(F)(F)F)C(F)(F)F)c1` was tested. Which T/C [8] did it give?
Answer: 97 % of control

Question: What about the T/C [9] of the same compound?
Answer: 91 % of control

Question: Which T/C (dose: 60.0 mg/kg/injection, schedule: Q01DX005 (ip), vehicle: Klucel (hydroxypropylcellulose) (HPC)) does the source give for `O=C(O)COc1nc(Cl)c(Cl)cc1Cl` here?
Answer: 101 % of control and 104 % of control

Question: What about the T/C (dose: 120.0 mg/kg/injection, schedule: Q01DX005 (ip), vehicle: Klucel (hydroxypropylcellulose) (HPC)) of the same compound?
Answer: 103 % of control

Question: What about the T/C (dose: 240.0 mg/kg/injection, schedule: Q01DX005 (ip), vehicle: Klucel (hydroxypropylcellulose) (HPC)) of the same compound?
Answer: 113 % of control and 94 % of control

Question: Which results are given for `CCCC(OC(=O)c1ccc([N+](=O)[O-])cc1)C(=O)O` (stereo not drawn)?
Answer: T/C (dose: 25.0 mg/kg/injection, schedule: Q01DX001 (ip), vehicle: Klucel (hydroxypropylcellulose) (HPC)): 95 % of control; T/C (dose: 50.0 mg/kg/injection, schedule: Q01DX001 (ip), vehicle: Klucel (hydroxypropylcellulose) (HPC)): 105 % of control; T/C (dose: 100.0 mg/kg/injection, schedule: Q01DX001 (ip), vehicle: Klucel (hydroxypropylcellulose) (HPC)): 100 % of control

Question: What does the source list for `COC(=O)C1C(=O)C2OC1C1OC(C)(C)OC21` (stereo not drawn)?
Answer: T/C (dose: 50.0 mg/kg/injection, schedule: Q01DX005 (ip), vehicle: Klucel (hydroxypropylcellulose) (HPC)): 94 % of control; T/C (dose: 100.0 mg/kg/injection, schedule: Q01DX005 (ip), vehicle: Klucel (hydroxypropylcellulose) (HPC)): 103 % of control; T/C (dose: 200.0 mg/kg/injection, schedule: Q01DX005 (ip), vehicle: Klucel (hydroxypropylcellulose) (HPC)): 104 % of control

Question: What does the source list for `CN(C)c1ccc(/C=C/c2ccnc3c(O)ccc(O)c23)cc1`?
Answer: T/C (dose: 12.5 mg/kg/injection, schedule: Q01DX009 (ip), vehicle: saline with Tween-80): 91 % of control; T/C [1]: 94 % of control; T/C [2]: 92 % of control

Question: Which results are given for `CN(C)[C@@H]1C(=O)C(C(N)=O)=C(O)[C@]2(O)C(=O)C3C(=O)c4c(O)ccc(Cl)c4[C@](C)(O)[C@H]3C[C@@H]12` (stereo partly drawn)?
Answer: T/C (dose: 8.8 mg/kg/injection, schedule: Q01DX009 (ip), vehicle: saline with Tween-80): 109 % of control; T/C (dose: 13.3 mg/kg/injection, schedule: Q01DX009 (ip), vehicle: saline with Tween-80): 100 % of control; T/C (dose: 20.0 mg/kg/injection, schedule: Q01DX009 (ip), vehicle: saline with Tween-80): 109 % of control; T/C (dose: 30.0 mg/kg/injection, schedule: Q01DX009 (ip), vehicle: saline with Tween-80): 118 % of control

Question: For `CC(=O)C[n+]1ccccc1Sc1ccc(Cl)cc1`, which T/C [11] is on record?
Answer: 111 % of control

Question: What about the T/C [12] of the same compound?
Answer: 111 % of control

Question: Which T/C [5] does the source give for `O=C(N/N=C/c1ccccc1O)C(O)(c1ccccc1)c1ccccc1` here?
Answer: 107 % of control

Question: And the T/C [6]?
Answer: 101 % of control

Question: And the T/C [7]?
Answer: 92 % of control
